In ChEMBL document CHEMBL1201862, “PubChem BioAssay data set” (2004):
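Results reflect a 48-hour exposure of cells in 96-well plates to compound at five concentrations. GI50 marks 50% less growth.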 Calls of active or inactive are those of the source. Cut-off read from the data, not from the text of the source: active = GI50 up to about 1.1 µM and inactive = higher.

Experiments:
Experiment in all cases: DTP human tumour cell line panel, 48 h
CCRF-CEM = system: CCRF-CEM
A549 = system: A549
SN12C = system: SN12C
K562 = system: K562
CAKI-1 = system: CAKI-1
SNB-19 = system: SNB-19
KM12 = system: KM12
EKVX = system: EKVX
LOX IMVI = system: LOX IMVI
SF-295 = system: SF-295
A498 = system: A498
UO-31 = system: UO-31
M14 = system: M14
T47D = system: T47D
786-0 = system: 786-0
HOP-62 = system: HOP-62
OVCAR-4 = system: OVCAR-4
SNB-75 = system: SNB-75
HCT-116 = system: HCT-116

Compound | GI50 (CCRF-CEM) | GI50 (A549) | GI50 (SN12C) | GI50 (K562) | GI50 (CAKI-1) | GI50 (SNB-19) | GI50 (KM12) | GI50 (EKVX) | GI50 (LOX IMVI) | GI50 (SF-295) | GI50 (A498) | GI50 (UO-31) | GI50 (M14) | GI50 (T47D) | GI50 (786-0) | GI50 (HOP-62) | GI50 (OVCAR-4) | GI50 (SNB-75) | GI50 (HCT-116)
CCOC(=O)CCCN | > 100 µM (inactive) | > 100 µM (inactive) | > 100 µM (inactive) | > 100 µM (inactive) | > 100 µM (inactive) | > 100 µM (inactive) | > 100 µM (inactive) | > 100 µM (inactive) | > 100 µM (inactive) | > 100 µM (inactive) | > 100 µM (inactive) | > 100 µM (inactive) | > 100 µM (inactive) | > 100 µM (inactive) | > 100 µM (inactive) | > 100 µM (inactive) | > 100 µM (inactive) | > 100 µM (inactive) | > 100 µM (inactive)
CC(C)(C)C1CCC2c3c([nH]c4ccccc34)C3C(=O)N(c4cccc(Cl)c4)C(=O)C3C2C1 (stereo not given) | 4.3 µM (inactive) | 14.2 µM (inactive) | 5.71 µM (inactive) | 2.44 µM (inactive) | 17.8 µM (inactive) | 33.5 µM (inactive) | 5.01 µM (inactive) | 11.5 µM (inactive) | 7.48 µM (inactive) | 18.5 µM (inactive) | 22.6 µM (inactive) | 9.12 µM (inactive) | 9.98 µM (inactive) | 9.16 µM (inactive) | 8.28 µM (inactive) | 0.518 µM (active) | 14.6 µM (inactive) | 14.1 µM (inactive) | 6.3 µM (inactive)
CCn1c2ccc(C(=O)CCCN(C)C)cc2c2cc(C(=O)CCCN(C)C)ccc21 | 0.395 µM (active) | 0.867 µM (active) | 0.946 µM (active) | 2.05 µM (inactive) | 2.55 µM (inactive) | 1.6 µM (inactive) | 1.18 µM (inactive) | 1.79 µM (inactive) | 1.12 µM (active) | 3.64 µM (inactive) | 1.32 µM (inactive) | 3.48 µM (inactive) | 1.95 µM (inactive) | 10.2 µM (inactive) | 0.243 µM (active) | 0.701 µM (active) | 1.18 µM (inactive) | 2.97 µM (inactive) | 0.593 µM (active)
CCOC(=O)c1cc([N+](=O)[O-])cc([N+](=O)[O-])c1Sc1[nH]cnc2ncnc1-2 | 0.462 µM (active) | 14.3 µM (inactive) | 2.21 µM (inactive) | 0.661 µM (active) | 1.85 µM (inactive) | 19.5 µM (inactive) | 5.25 µM (inactive) | 5.08 µM (inactive) | 0.454 µM (active) | 7.29 µM (inactive) | 12.2 µM (inactive) | 1.75 µM (inactive) | 0.869 µM (active) | 1.2 µM (inactive) | 0.824 µM (active) | 3.54 µM (inactive) | 1.03 µM (active) | 10.3 µM (inactive) | 2.12 µM (inactive)
COc1ccc2o/c(=N\c3ccc(F)cc3)c(C(N)=O)cc2c1 | > 100 µM (inactive) | 64.3 µM (inactive) | 42 µM (inactive) | > 100 µM (inactive) | 45.6 µM (inactive) | 38.5 µM (inactive) | > 100 µM (inactive) | > 100 µM (inactive) | > 100 µM (inactive) | 33.7 µM (inactive) | 20 µM (inactive) | 46.8 µM (inactive) | > 100 µM (inactive) | 19.4 µM (inactive) | 10.5 µM (inactive) | 29.1 µM (inactive) | 27.9 µM (inactive) | 12.6 µM (inactive) | 22.8 µM (inactive)
CCOC(=O)/C(C#N)=C(/NNc1ccccc1)c1ccncc1C(=O)O | > 38.2 µM (inactive) | > 52.7 µM (inactive) | > 100 µM (inactive) | 3.28 µM (inactive) | > 73.1 µM (inactive) | > 100 µM (inactive) | 3.4 µM (inactive) | > 100 µM (inactive) | 2.81 µM (inactive) | 5.47 µM (inactive) | > 100 µM (inactive) | 4.49 µM (inactive) | 5.66 µM (inactive) | 8.17 µM (inactive) | > 100 µM (inactive) | > 100 µM (inactive) | > 100 µM (inactive) | > 100 µM (inactive) | > 100 µM (inactive)
O=C(O)c1ccc2c(c1)Cc1cc([N+](=O)[O-])ccc1-2 | 21.6 µM (inactive) | > 100 µM (inactive) | > 100 µM (inactive) | 73.5 µM (inactive) | 71.4 µM (inactive) | > 100 µM (inactive) | > 100 µM (inactive) | > 100 µM (inactive) | > 100 µM (inactive) | 90.8 µM (inactive) | 44 µM (inactive) | 93.1 µM (inactive) | > 100 µM (inactive) | > 100 µM (inactive) | > 100 µM (inactive) | > 100 µM (inactive) | > 100 µM (inactive) | > 100 µM (inactive) | > 100 µM (inactive)
Nc1nn2c(C(Br)Br)cc(C(Br)Br)nc2c1[N+](=O)[O-] | 0.161 µM (active) | 2.43 µM (inactive) | 1.6 µM (inactive) | 0.248 µM (active) | 0.5 µM (active) | 1.61 µM (inactive) | 1.32 µM (inactive) | 2.37 µM (inactive) | 0.269 µM (active) | 1.77 µM (inactive) | 2.18 µM (inactive) | 1.25 µM (inactive) | 0.627 µM (active) | 0.667 µM (active) | 0.336 µM (active) | 1.88 µM (inactive) | 1.45 µM (inactive) | 1.08 µM (active) | 0.634 µM (active)
NC(=O)NC(=O)Nc1ccc(Br)cc1 | > 4.65 µM (inactive) | > 16.6 µM (inactive) | > 67.5 µM (inactive) | 3.3 µM (inactive) | > 9.38 µM (inactive) | > 11.9 µM (inactive) | 21.8 µM (inactive) | 14.7 µM (inactive) | 8.45 µM (inactive) | 14.7 µM (inactive) | 9.79 µM (inactive) | 22.8 µM (inactive) | 18.5 µM (inactive) | 6.03 µM (inactive) | 20.5 µM (inactive) | > 15.8 µM (inactive) | > 24.3 µM (inactive) | 3.19 µM (inactive) | 17.3 µM (inactive)
CC(=O)Nc1ccc(Nc2cc(=O)n(C)c(=O)[nH]2)cc1 | > 100 µM (inactive) | > 100 µM (inactive) | > 100 µM (inactive) | > 100 µM (inactive) | > 100 µM (inactive) | > 100 µM (inactive) | > 100 µM (inactive) | > 100 µM (inactive) | > 100 µM (inactive) | > 100 µM (inactive) | > 100 µM (inactive) | > 100 µM (inactive) | > 100 µM (inactive) | > 100 µM (inactive) | > 100 µM (inactive) | > 100 µM (inactive) | > 100 µM (inactive) | > 100 µM (inactive) | > 100 µM (inactive)
CSc1c(C#N)c2n(c3ccccc3[n+]2C)c2ncccc12 | 24.2 µM (inactive) | 12.5 µM (inactive) | 21.2 µM (inactive) | 37.9 µM (inactive) | 21 µM (inactive) | 32.6 µM (inactive) | 22 µM (inactive) | 21.7 µM (inactive) | 14.4 µM (inactive) | 18.9 µM (inactive) | 25.8 µM (inactive) | 16.1 µM (inactive) | 21.2 µM (inactive) | 25.8 µM (inactive) | 17.7 µM (inactive) | 23.4 µM (inactive) | 30.8 µM (inactive) | 17.3 µM (inactive) | 24.2 µM (inactive)
O=C(CCCC1Cc2ccccc2C1=O)c1ccccc1 (stereo not given) | 66.5 µM (inactive) | 50 µM (inactive) | 54.7 µM (inactive) | 39.8 µM (inactive) | > 100 µM (inactive) | 89.9 µM (inactive) | 96.4 µM (inactive) | 65.2 µM (inactive) | 34.8 µM (inactive) | 47.5 µM (inactive) | 52.5 µM (inactive) | 47.1 µM (inactive) | 99.8 µM (inactive) | 33.3 µM (inactive) | > 100 µM (inactive) | > 100 µM (inactive) | 59.3 µM (inactive) | 70.5 µM (inactive) | 63.8 µM (inactive)
Nc1nc(Cl)cc(NCCC2(CO)CCC2)n1 | > 100 µM (inactive) | > 100 µM (inactive) | > 100 µM (inactive) | > 100 µM (inactive) | > 100 µM (inactive) | > 100 µM (inactive) | > 100 µM (inactive) | 4.73 µM (inactive) | > 100 µM (inactive) | > 100 µM (inactive) | > 100 µM (inactive) | > 100 µM (inactive) | > 100 µM (inactive) | > 100 µM (inactive) | > 100 µM (inactive) | > 100 µM (inactive) | > 100 µM (inactive) | > 100 µM (inactive) | > 100 µM (inactive)
CCOC(=O)c1ccc(C(=O)/C(C(=O)OC(C)(C)C)=C2\CCCN2C)n1C | 72.9 µM (inactive) | 61.2 µM (inactive) | > 100 µM (inactive) | 42.1 µM (inactive) | > 100 µM (inactive) | > 100 µM (inactive) | 55.3 µM (inactive) | 33.4 µM (inactive) | 87.3 µM (inactive) | 28.7 µM (inactive) | 77.1 µM (inactive) | 90.4 µM (inactive) | 57.8 µM (inactive) | 29.2 µM (inactive) | > 100 µM (inactive) | 95.3 µM (inactive) | 46.6 µM (inactive) | 15.9 µM (inactive) | 48.5 µM (inactive)
Nc1ccc2c(=O)cc(-c3ccc(Br)s3)[nH]c2n1 | 2.37 µM (inactive) | 5.5 µM (inactive) | 6.55 µM (inactive) | 0.522 µM (active) | 4.46 µM (inactive) | 4.63 µM (inactive) | 0.673 µM (active) | 7.59 µM (inactive) | 4.69 µM (inactive) | 2.83 µM (inactive) | 3.21 µM (inactive) | 2.64 µM (inactive) | 3.12 µM (inactive) | 4.16 µM (inactive) | 4.02 µM (inactive) | 4.86 µM (inactive) | > 56.6 µM (inactive) | 2.47 µM (inactive) | 3.02 µM (inactive)
